Source: PubChem BioAssay (NCI)
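Briefly, cells in 96-well plates were exposed to five compound concentrations for 48 h, and endpoints were estimated by linear interpolation. GI50: concentration for 50% inhibition of growth. TGI: concentration producing complete growth inhibition.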

What was measured:
Test in all cases: growth of human tumour cells (NCI), 48 h
[1] = tested on: CAKI-1 renal
[2] = tested on: NCI/ADR-RES ovarian
[3] = tested on: SN12C renal
[4] = tested on: SK-MEL-5 melanoma
[5] = tested on: PC-3 prostate
[6] = tested on: NCI-H23 lung
[7] = tested on: SK-OV-3 ovarian
[8] = tested on: MDA-MB-435
[9] = tested on: HOP-92 NSCLC
[10] = tested on: SK-MEL-2 melanoma
[11] = tested on: ACHN renal
[12] = tested on: BT-549 breast
[13] = tested on: SF-295 CNS
[14] = tested on: OVCAR-8 ovarian
[15] = tested on: NCI-H226 lung
[16] = tested on: 786-0 renal
[17] = tested on: SK-MEL-28 melanoma
[18] = tested on: OVCAR-3 ovarian
[19] = tested on: HCT-116 colon
[20] = tested on: U251 CNS
[21] = tested on: TK-10 renal
[22] = tested on: DU-145 prostate
[23] = tested on: K-562 leukemia
[24] = tested on: CCRF-CEM leukemia
[25] = tested on: HT29 colon
[26] = tested on: OVCAR-5 ovarian
[27] = tested on: T-47D breast

## O=C1C=Cc2cc3ccccc3c3cccc1c23
[1]
  GI50: 2.51 µM
  TGI: 7.1 µM
[2]
  GI50: 3.33 µM
  TGI: 19.2 µM
[3]
  GI50: 2.71 µM
  TGI: 11.3 µM
[4]
  GI50: 2.73 µM
  TGI: 5.87 µM
[5]
  GI50: 3.47 µM
  TGI: 19.1 µM
[6]
  GI50: 2.57 µM
  TGI: 9.95 µM
[7]
  GI50: 19.5 µM
  TGI: > 100 µM
[8]
  GI50: 16.3 µM
  TGI: 70.7 µM
[9]
  GI50: 1.11 µM
  TGI: 6.29 µM
[10]
  GI50: 27.6 µM
  TGI: > 100 µM
[11]
  GI50: 2.06 µM
  TGI: 7.39 µM
[12]
  GI50: 9.66 µM
  TGI: 51.9 µM
[13]
  GI50: 7.65 µM
  TGI: 35.8 µM
[14]
  GI50: 3.3 µM
  TGI: 16.7 µM
[15]
  GI50: 2.61 µM
  TGI: 10 µM
[16]
  GI50: 4.29 µM
  TGI: > 100 µM
[17]
  GI50: 10.5 µM
  TGI: > 100 µM
[18]
  GI50: 3.9 µM
  TGI: 19 µM
[19]
  GI50: 3.16 µM
  TGI: > 100 µM
[20]
  GI50: 4.38 µM
  TGI: 43.1 µM
[21]
  GI50: 9.55 µM
  TGI: 42.3 µM
[22]
  GI50: 9.53 µM
  TGI: > 100 µM
[23]
  GI50: 5.59 µM
  TGI: > 100 µM
[24]
  GI50: 4.35 µM
  TGI: 18.3 µM
[25]
  GI50: 7.29 µM
  TGI: > 100 µM
[26]
  GI50: 3.44 µM
  TGI: 27.5 µM
[27]
  GI50: 21.2 µM
